Key:
[1] = target: L-DOPA 2,3-dioxygenase from S. hygroscopicus jingganensis (ShjDDO) (Streptomyces hygroscopicus, UniProt H2JL11); test: UV-visible steady-state assay of L-DOPA 2,3-dioxygenase (ShjDDO); type: biochemical; conditions: for kSP, O2 (μM^-1 min^-1) at pH 7.5 relative to L-DOPA x 100 for ShjDDO: percentage of the value for L-DOPA
Experimental: (§1) Purified, reconstituted L-DOPA 2,3-dioxygenases were assessed for activity by monitoring the cleavage of catecholic substrates using UV–visible spectroscopy. 3,4-Dihydroxyhydrocinnamic acid (DHHCA, 3) was purchased from Sigma-Aldrich. 6-CyanoDHHCA (5) and 6-bromoDHHCA (4) were synthesized as described above.
(§2) Molecular oxygen (AirGas) was bubbled directly into the reaction buffer through a glass-bonded silica gas diffuser (Bubblemac Industries, Inc.) or as a gas mixture blended with air (AirGas). Solutions were bubbled with oxygen for several minutes prior to use and for the duration of the experiment. To determine the K M for oxygen (i.e., K MO2), L-DOPA 2,3-dioxygenases (0.25–4.0 μM) were reacted with a saturating concentration of the catecholic substrate DHHCA/6-X-DHHCA derivatives (2–10× the K M sufficient to achieve k cat) and various oxygen concentrations (21–100% or 270–1300 μM at 22 °C). The concentration of oxygen was varied by changing the percentage of oxygen in the blend using a galvanic oxygen sensor and oxygen monitor (AirGas) and then bubbling solutions, as described above. Molecular oxygen percentages were converted to molar concentrations using a reference temperature of 22 °C. The reaction of L-DOPA 2,3-dioxygenases with DHHCA/6-X-DHHCA derivatives as a function of oxygen concentration was followed by the appearance of the steady-state cleavage product by using UV–visible spectroscopy.
(§3) The extinction coefficients for steady-state cleavage products of DHHCA and synthetic 6-X-DHHCA derivatives were determined by reacting various concentrations of DHHCA/6-X-DHHCA derivatives at 22 °C with a 10-fold stoichiometric excess of enzyme (quantified by Fe^II–see Reconstitution) in 50 mM HEPES buffer with 154 mM NaCl at pH 7.5, bubbled with 100% oxygen to a final concentration of 780–910 μM, depending on the volume of oxygenated buffer that comprised the reaction (60–70%). Substrate solutions were prepared from authentic synthetic standards using an analytical balance, and reactions were run to completion as assessed by the appearance of the steady-state product. The λmax and extinction coefficients of DHHCA, 6-cyanoDHHCA, and 6-bromoDHHCA were determined herein as ε380 = 40 740 ± 820 M^–1cm^–1, ε385 = 33 256 ± 484 M^–1cm^–1, and ε380 = 35 282 ± 1190 M^–1cm^–1, respectively (Figure S52).
(§4) Steady-state kinetic data were obtained through a UV–visible spectroscopic assay. Initial rates were obtained from the slopes of the linear regions of the progress curves and plotted versus substrate concentration to yield a hyperbola, which was analyzed using the Michaelis–Menten expression and nonlinear least-squares fitting (NLSF) with Origin 6.0 (Microcal). Two possible derivations of the Michaelis–Menten expression were used: 1) the traditional expression y = k cat × x/(K M + x), where y is Rate/E 0 or the rate of product formation (μM/min) divided by the starting enzyme concentration (μM), x is substrate concentration (μM) and k SP (also known as k cat × K M ^–1)–that is, the second-order rate constant of enzyme and substrate–is extracted from the fitted constants; or 2) the alternative derivation that extracts k SP and k cat directly from the fit: y = (k SP × x)/((1 + k SP × x)/k cat), and where y is Rate/E 0 or the rate of product formation (μM/min) divided by the starting enzyme concentration (μM), x is substrate concentration (μM), k SP is equivalent to k cat×K M ^–1, and K M is extracted from k cat/k cat×K M ^–1.

[2] = Determination of pKa values by spectrophotometric titration; conditions: for pK a value: first catecholic deprotonation, determined spectroscopically from pH 3 to 12.5; for Catecholic pKa value relative to L-DOPA x 100: percentage of the value for L-DOPA
[3] = test system: S. hygroscopicus jingganensis L-DOPA 2,3-dioxygenase (ShjDDO); test: Presteady state stopped-flow kinetic assay, modeled with KinTek Explorer; type: biochemical, Streptomyces hygroscopicus jingganensis; conditions: ratio k6/k7; presteady state with ShjDDO
Experimental: Reaction temperature was controlled at 14 ± 0.5 °C by a circulating water bath. […] Stock solutions of 6-[…] prepared in DMSO. […] ShjDDO was reconstituted with iron(II) sulfate heptahydrate, gel filtered into the reaction buffer, and loaded into the drive syringe. […] Fifteen to twenty progress curves from the same experimental conditions were averaged in the KinTek Stopped Flow software and exported to KinTek Explorer for modeling. Between experiments, the instrument drive syringes were cleaned with acid, base, and water; soaked in 1% Hellmanex detergent for 30 min at ∼30-35 °C; thoroughly rinsed with water; and stored in 10% ethanol. […] state kinetic data were analyzed by fitting to simulated mechanisms using the KinTek Explorer software (KinTek Corp, Austin, TX). KinTek Explorer simulates experimental results by using direct numerical integration of rate equations for the kinetic model and yields estimates for the rate constants of microscopic steps. […] state experiments were modeled using KinTek Explorer according to a defined reaction pathway, as described in the Results and Discussion and shown in Scheme . The extinction coefficients of the DHHCA and 6-[…] semialdehyde products were independently determined as described above and fixed during fitting. Some rates were fixed as either “fast” (i.e., 1 × 10^9) or very slow (1 × 10^-12, i.e., ∼0) as described in the text. The equilibrium represented by k 1 and k -1 was fixed at the ratio of substrate charge states as predicted by the experimentally determined pK a values (Table ) and the Henderson-Hasselbach equation. Extinction coefficients were fitted and/or fixed during fitting as described in the text and interpreted using the observable expression: […], where a is the extinction coefficient applied to ESQ, b is the independently experimentally determined extinction coefficient on P, and c is a y-axis offset. […] ESO2 is the ternary complex of enzyme, substrate, and oxygen. ESQ represents the putative semiquinone intermediate, a UV-absorbing species, and ESQ_X is the species formed from the nonproductive quenching of the semiquinone. […] EP is the enzyme-product complex, and P is the free semialdehyde product. P can then degrade nonenzymatically to the spectroscopically silent P_X. Errors on each fit were calculated from 2[…] at 0.83 Chi^2. The KinTek Explorer program FitSpace explores the uniqueness of a particular fit to the data by measuring the dependence of the sum square error (SSE) on each pair of parameters, while allowing all other parameters to vary in seeking the best fit. […]

[4] = target: L-DOPA 2,3-dioxygenase from S. lincolnensis (LmbB1) (Streptomyces lincolnensis, UniProt Q54354); test: UV-visible steady-state assay of L-DOPA 2,3-dioxygenase (LmbB1); type: biochemical; conditions: for kSP, O2 (μM^-1 min^-1) at pH 7.5 relative to L-DOPA x 100 for LmbB1: percentage of the value for L-DOPA
Chain of L-DOPA 2,3-dioxygenase from S. lincolnensis (LmbB1) (Q54354 entry or part of it): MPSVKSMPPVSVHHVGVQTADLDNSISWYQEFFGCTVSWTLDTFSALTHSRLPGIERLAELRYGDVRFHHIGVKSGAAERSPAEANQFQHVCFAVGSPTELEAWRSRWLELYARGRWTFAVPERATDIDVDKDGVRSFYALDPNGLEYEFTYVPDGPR
Experimental: as §1, §2, §3, §4

[5] = Cyclic voltammetry (redox potentials on a GCE); type: physicochemical; conditions: for (E p)a Oxidation / E1/2 / Ipa/Ipc / ΔE p / (E p)c Reduction: GCE (d = 2 mm)
From the text: Reduction and oxidation potentials were experimentally performed by cyclic voltammetry (CV) at biological pH 7.4, as previously described. All samples were run on a CH Instruments 600E Potentiostat in a one-compartment cell equipped with a three-electrode system arrangement. The three-electrode system included a saturated calomel electrode as the reference electrode, a platinum wire as the auxiliary electrode, and a glassy carbon electrode (GCE, d = 2 mm) as the working electrode. The GCE was polished between each sample scan with an aqueous slurry of alumina powder on a microcloth pad. The electrodes were rinsed with distilled water prior to the next scan. All scans were conducted under nitrogen for oxygen displacement and at room temperature (rt, 25 ± 1 °C). All samples were prepared as close to the scan as possible (approximately 2 min each). Each sample (5 mL) contained 0.1 mM catecholic substrate and 1 μM DMSO in 0.1 M phosphate buffer at a pH of 7.4 or 6.0. […] The cyclic voltammograms for the compounds at both pH 6.0 and 7.4 are available in Figures S40–S51.

[6] = set-up: method as in Biochemistry 2021, 60, 32, 2492–2507; conditions: similarly 6-substituted dopamine; ref Biochemistry 2021, 60, 32, 2492–2507; cited from earlier work

Chain of L-DOPA 2,3-dioxygenase from S. hygroscopicus jingganensis (ShjDDO) (H2JL11 1-162): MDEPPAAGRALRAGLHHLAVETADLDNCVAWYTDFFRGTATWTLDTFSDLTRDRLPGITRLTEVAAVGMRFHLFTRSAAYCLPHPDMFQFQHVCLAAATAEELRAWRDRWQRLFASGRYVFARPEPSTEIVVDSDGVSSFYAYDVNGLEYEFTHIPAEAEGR

Row | kSP, O2 (μM^-1 min^-1) at pH 7.5 relative to L-DOPA x 100 for ShjDDO [1] | pK a value [2] | Catecholic pKa value relative to L-DOPA x 100 [2] | kSP, O2 (μM^-1 min^-1) at pH 7.5 relative to L-DOPA x 100 for LmbB1 [4] | (E p)a Oxidation ([5]; pH 6.0) | E1/2 ([5]; pH 6.0) | Ipa/Ipc ([5]; pH 6.0) | ΔE p ([5]; pH 6.0) | (E p)a Oxidation ([5]; pH 7.4) | SMILES | other results
1 | 13% | 8.87 ± 0.12 | 101% | 23% | 388 mV | 198.5 mV | 2.54 | 379 mV | 333 mV | O=C(O)CCc1ccc(O)c(O)c1 [DHHCA (3), 3,4-dihydroxyhydrocinnamic acid] | kcat at 22 °C and 100% O2 saturation ([1]; S. hygroscopicus jingganensis enzyme, pH 7.5): 6.7 × 10^–1 ± 5.0 × 10 ^–2 sec^–1; kSP,O2 × 10^2 at 22 °C ([1]; S. hygroscopicus jingganensis enzyme, values are kSP × 10^2): 17.7 ± 2.6 μM^–1 min^–1; kSP catechol × 10^2 at 22 °C ([1]; S. hygroscopicus jingganensis enzyme, values are kSP × 10^2, kSP = kcat/KM): 9.5 ± 2.3 μM^–1 min^–1; activity / turnover as substrate ([1]; ShjDDO, aerobic reaction observed by UV–visible spectroscopy): measurable activity; productive formation of EI (k 6) faster than the rate of inactivation (k 7) [3]: ~40 times; activity / turnover as substrate ([4]; LmbB1, aerobic reaction observed by UV–visible spectroscopy): measurable activity; kcat at 22 °C and 100% O2 saturation ([4]; S. lincolnensis enzyme, pH 7.5): 2.1 ± 0.2 sec^–1; kSP,O2 × 10^2 at 22 °C ([4]; S. lincolnensis enzyme, values are kSP × 10^2): 19.2 ± 3.2 μM^–1 min^–1; kSP catechol × 10^2 at 22 °C ([4]; S. lincolnensis enzyme, values are kSP × 10^2, kSP = kcat/KM): 13.4 ± 2.5 μM^–1 min^–1; (E p)c Reduction ([5]; pH 7.4): –95 mV; E1/2 ([5]; pH 7.4): 119 mV; Ipa/Ipc ([5]; pH 7.4): 1.30; ΔE p ([5]; pH 7.4): 428 mV; E1/2 (mV) at pH 7.4 relative to L-DOPA x 100 ([5]; percentage of the value for L-DOPA): 59%
2 | 100% | 8.81 ± 0.19 | 100% | 100% | 362 mV | 231.5 mV | 5.90 | 261 mV | 315 mV | N[C@@H](Cc1ccc(O)c(O)c1)C(=O)O [L-DOPA (1), L-3,4-dihydroxyphenylalanine] | (E p)c Reduction ([5]; pH 6.0): 101 mV
3 |  |  |  |  |  |  |  |  |  | NCCc1cc(O)c(O)cc1[N+](=O)[O-] [dopamine counterpart of 6-NitroDHHCA (6), 6-nitrodopamine] | pK a value of dopamine counterpart [6]: 6.23 ± 0.03

Reference: publication PMC12311729, “Probing the Mechanism of L‑DOPA 2,3-Dioxygenase Using Synthetic Derivatives of 3,4-Dihydroxyhydrocinnamic Acid” (ACS Omega, 2025)
